Several values for one entry are separate records, joined by “and”; a condition that tells them apart may be missing. Identical values can stand only once.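 A five-concentration, 48-hour dose response in 96-well plates underlies each endpoint, interpolated linearly between surrounding concentrations. The concentration for 50% growth inhibition is given as GI50. TGI: total growth inhibition.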
Tests used:
Test in all cases: NCI anticancer screen, dose series, 48 h
[1] = system: CAKI-1 renal
[2] = system: HCT-15 colon
[3] = system: HS 578T breast
[4] = system: K-562 leukemia
[5] = system: KM12 colon
[6] = system: M14 melanoma
[7] = system: NCI-H23 lung
[8] = system: SF-268 CNS
[9] = system: SK-MEL-28 melanoma
[10] = system: UO-31 renal

Structure (SMILES) | TGI [1] | TGI [2] [µM] | TGI [3] [µM] | TGI [4] [µM] | TGI [5] | TGI [6] | TGI [7] [µM] | TGI [8] [µM] | TGI [9] | TGI [10] | GI50 [1] [µM] | GI50 [2] | GI50 [3] | GI50 [5] | GI50 [6] [µM] | GI50 [7] | GI50 [9] | GI50 [10]
Cc1ccc(NCCN(C)C)c2c(=O)c3cc(O)ccc3sc12 | 11.6 µM | 9.99 | 3.87 | 11.7 | 11.4 µM | 10.4 µM | 16.8 | 15.6 | 12.5 µM | 17.4 µM |  |  |  |  |  |  |  | 
COc1ccc(/C=N/NC(=S)Nc2cc(C)ccc2OC)cc1 | > 100 µM | > 100 | > 100 | 13 | > 100 µM | 65.6 µM | 73.8 | > 100 | > 100 µM | > 100 µM |  |  |  |  |  |  |  | 
CCCCCCCCCCCCC1N=C(N)NC2(CCCO2)C1C(=O)OC (stereo unspecified) | 30.6 µM | 42.9 | 8.89 | 5.25 | 3.34 µM | 16.6 µM | 18.2 | 14.8 | 21.6 µM | 32.2 µM |  |  |  |  |  |  |  | 
CCc1cc2c(c3c1CCCC3=O)CC1(C2)Cc2cc(CC)c3c(c2C1)C(=O)CCC3 | > 100 µM | > 100 | > 100 | > 100 | > 100 µM | > 100 µM | > 100 | > 100 | > 100 µM | > 100 µM |  |  |  |  |  |  |  | 
Cn1c(=O)c2c(nc(N/N=C3/SCC(=O)N3Cc3ccccc3)n2C)n(C)c1=O | > 100 µM | > 100 | > 100 | > 100 | > 100 µM | > 100 µM | > 100 | > 100 | > 100 µM | > 100 µM |  |  |  |  |  |  |  | 
C/C(Nc1ccc(Cl)cc1)=C1/CCOC1=O | > 100 µM | > 100 | > 100 | > 100 | > 100 µM | > 100 µM | > 100 | > 100 | > 100 µM | > 100 µM |  |  |  |  |  |  |  | 
CC[C@@]1(O)C(=O)OCc2c1cc1n(c2=O)Cc2c-1nc1ccccc1c2C=Nc1ccccc1N[C@@H]1c2cc3c(cc2[C@@H](c2cc(OC)c(O)c(OC)c2)[C@H]2C(=O)OC[C@@H]21)OCO3 | 0.807 µM and 0.494 µM |  | > 100 | > 100 | > 41.6 µM and 8.08 µM | 6.02 µM and 1.03 µM |  | > 82.3 | 35 µM and > 50 µM | 3.12 µM and 0.593 µM | 0.0138 | 0.88 µM and 0.19 µM | 4.87 µM and 0.875 µM | 4.99 µM and 1.74 µM | 0.0322 | 0.0356 µM and 0.0156 µM | 11.4 µM and 1.17 µM | 0.129 µM and 0.0745 µM
CN(C)C(=O)Oc1ccc(C(=S)Nc2ccccc2)cc1 | > 100 µM | > 100 | > 100 | > 100 | > 100 µM | > 100 µM | > 100 | > 100 | > 100 µM | > 100 µM |  |  |  |  |  |  |  | 
CC(=O)C(C(C)=O)[C@H]1OC(C)(C)O[C@H]1[C@H]1COC(C)(C)O1 | > 100 µM | > 100 | > 100 | > 100 | > 100 µM | > 100 µM | > 100 | > 100 | > 100 µM | > 100 µM |  |  |  |  |  |  |  | 
COc1ccc(/C=N/Nc2nnc3c(n2)c2ccccc2c2nn(-c4ccccc4Cl)nc23)cc1 | > 100 µM | > 100 | > 100 | > 100 | > 100 µM | > 100 µM | > 100 | > 100 | > 100 µM | > 100 µM |  |  |  |  |  |  |  | 
CC[C@@]12CCC(=S)N(CCSc3ccccc3)[C@@H]1c1c(n(S(=O)(=O)c3ccc(OC)cc3)c3ccccc13)CC2 | > 100 µM | > 100 | > 100 | > 100 | > 100 µM | > 100 µM | > 100 | > 100 | > 100 µM | > 100 µM |  |  |  |  |  |  |  | 
COC(=O)c1ccccc1C1CN=NC12Cc1c(C)ccc(C)c1C2=O (stereo unspecified) | > 100 µM | > 100 | > 100 | > 100 | > 100 µM | > 100 µM | > 100 | > 100 | > 100 µM | > 100 µM |  |  |  |  |  |  |  | 
CCC1CN2CCc3c([nH]c4ccccc34)[C@@](C(=O)OC)(c3cc4c(cc3OC)N(C)C3C(O)(C(=O)OC)C(C(=O)OC)C5(CC)C=CCN6CCC43C65)C[C@@H](C2)[C@@H]1C(C)(C)C (stereo partly specified) | > 10 µM | 2.82 | > 6.86 | 9.73 | > 5.72 µM | 8.22 µM | > 6.31 | > 10 | > 10 µM | > 6.12 µM |  |  |  |  |  |  |  | 
COc1ccc(/C(CC2OC(=O)c3ccccc32)=N\NC(N)=O)cc1 (stereo unspecified) | > 100 µM | > 100 | > 100 | > 100 | > 100 µM | > 100 µM | > 100 | > 100 | > 100 µM | > 100 µM |  |  |  |  |  |  |  | 
Cc1cc(C)nc(NS(=O)(=O)c2ccc(Nc3c4ccccc4nc4ccc(C(=O)Nc5ccc(S(=O)(=O)N=C(N)N)cc5)cc34)cc2)n1 | > 100 µM | > 100 | > 100 | 62.3 | > 100 µM | > 100 µM | > 100 | > 100 | > 100 µM | > 100 µM |  |  |  |  |  |  |  | 
